Five compounds from ChEMBL document CHEMBL1201862, “PubChem BioAssay data set” (2004) can be followed below.

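Each compound was tested at five concentrations against cells in 96-well plates for 48 hours. GI50: concentration for 50% inhibition of growth.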 Activity calls are given as the source filed them. No stated cut-off is given here; in the data, active = GI50 up to about 1.1 µM and inactive = higher.

Among the test systems are NCI-H226; OVCAR-5; BT-549; NCI/ADR-RES; RPMI-8226; SF-295; PC-3; ACHN; Hs-578T; U-251; OVCAR-8; COLO 205; MCF7; HCT-116; SK-MEL-5; M19-MEL; SNB-78; HOP-18; CAKI-1; KM-20L2.
Test in all cases: NCI tumour cell line growth inhibition, 48 h

Take `O=C(O)C1(Cc2ccccc2)Cc2ccccc2C1`: the GI50 with NCI-H226, in the assay with OVCAR-5, in the assay with BT-549, in the assay on NCI/ADR-RES, in the assay with RPMI-8226 and in the assay with SF-295 was > 100 µM (inactive) each time. In addition, the GI50 in the assay with PC-3 was > 100 µM (inactive); in the assay on ACHN, > 100 µM (inactive); with Hs-578T it was 94.4 µM (inactive); in the assay on U-251, > 100 µM (inactive); with OVCAR-8, > 100 µM (inactive); with COLO 205, > 100 µM (inactive). The GI50 with MCF7, in the assay with HCT-116 and in the assay on SK-MEL-5 was > 100 µM (inactive) each time.
Consider `CN(C)CCCNC(=O)c1cccc2ccccc12`, for which the GI50 in the assay with NCI-H226 was > 100 µM (inactive); in the assay with M19-MEL it was > 10 µM (inactive); in the assay with SF-295 it was > 100 µM (inactive); with ACHN, > 100 µM (inactive); in the assay with U-251 it was > 100 µM (inactive); with SNB-78, > 100 µM (inactive). Also, the GI50 in the assay on OVCAR-8, in the assay on HCT-116 and with SK-MEL-5 was > 100 µM (inactive) throughout.
With `CC12CCC3=C(CSC4=C3CSc3ccccc34)C1=CCCC2=O` (configuration not stated), the GI50 with NCI-H226 is 64.3 µM (inactive); in the assay on OVCAR-5 it was 37.8 µM (inactive); with M19-MEL, 86.9 µM (inactive); with HOP-18, 39.3 µM (inactive); in the assay on RPMI-8226, 61.2 µM (inactive); in the assay with ACHN, 69.2 µM (inactive). For the same compound, the GI50 in the assay on U-251 is 42.8 µM (inactive); with OVCAR-8, 78.5 µM (inactive); in the assay on CAKI-1 it was 35.1 µM (inactive); with COLO 205, 20.3 µM (inactive); in the assay on KM-20L2, 51.6 µM (inactive); in the assay with HCT-116 it was 58.3 µM (inactive). In addition, in the assay on SK-MEL-5, the GI50 was 17.4 µM (inactive).
As to `Nc1nc(=O)[nH]c2c1cnn2COCCO`, the GI50 was 0.281 µM (active) with NCI-H226; 11.3 µM (inactive) with OVCAR-5; > 100 µM (inactive) in the assay with HOP-18; > 100 µM (inactive) in the assay on RPMI-8226; > 100 µM (inactive) in the assay on SF-295; > 100 µM (inactive) with ACHN. Further, the GI50 with U-251 is 22.4 µM (inactive); in the assay with SNB-78 it was 21.5 µM (inactive); in the assay on OVCAR-8, > 100 µM (inactive); in the assay on CAKI-1 it was > 100 µM (inactive); in the assay on COLO 205, > 100 µM (inactive); with KM-20L2 it was 2.33 µM (inactive). The GI50 in the assay with HCT-116 and with SK-MEL-5 was > 100 µM (inactive) in each case.
With `C[C@H]1SC(c2ccc(Cl)cc2Cl)N(NC(=O)c2ccncc2)C1=O` (some centres not stated), the GI50 in the assay on NCI-H226 was 18.5 µM (inactive); in the assay with OVCAR-5, 28.8 µM (inactive); in the assay with BT-549 it was 36.6 µM (inactive); in the assay on NCI/ADR-RES it was 36.9 µM (inactive); in the assay with RPMI-8226 it was 35.6 µM (inactive); with SF-295, 49.1 µM (inactive). Further, the GI50 was 15.1 µM (inactive) in the assay on PC-3; 27.5 µM (inactive) with ACHN; 64.7 µM (inactive) in the assay on Hs-578T; 40.6 µM (inactive) with U-251; 49.9 µM (inactive) in the assay on OVCAR-8; > 100 µM (inactive) with CAKI-1. In addition, the GI50 in the assay with COLO 205 was 37.7 µM (inactive); in the assay on MCF7, 8.59 µM (inactive); in the assay on HCT-116, 20 µM (inactive); in the assay with SK-MEL-5 it was 19.2 µM (inactive).
